{"source": "patent US11584928B2", "about": "“Methods for generating barcoded combinatorial libraries” (The Regents of the University of Colorado, priority 2016, dated 2023)", "data": [{"system": "galK", "test": "galK editing with MAD2 or MAD7 nuclease and various guide nucleic acid scaffolds, white/red screening", "format": "cell-based, E. coli", "settings": "guide sequence targeting galK", "source_text": "MAD2 and MAD7 nucleases are nucleic acid-guided nuclease that can be used in the methods disclosed herein. Nucleases Mad2 (SEQ ID NO: 2) and Mad 7 (SEQ ID NO: 7) were cloned and transformed into cells. Editing cassettes designed to mutate a target site in a galK gene were designed with mutations, which allowed for white/red screening of successfully editing colonies. The editing cassettes also encoded a guide nucleic acid designed to target galK. The editing cassettes were transformed into E. coli cells expressing MAD2, MAD7, or Cas9. […] In this example, the guide nucleic acid used with MAD2 and MAD7 comprised a scaffold-12 sequence and a guide sequence targeting galK. The guide nucleic acid used with Cas9 comprised a sequence compatible with the S. pyogenes Cas9.\n(§1) FIG. 32 and Table 3 show more examples of gene editing using the MAD2 nuclease. In this experiment, different guide nucleic acid sequences were tested. The guide sequence of the guide nucleic acids targeted the galK gene as described above. The scaffold sequence of the guide nucleic acids were one of various sequences tested as indicated.\nas §1, with “33” for “32”, “4” for “3”, “MAD7” for “MAD2”, “indicated. […] Table 3 and Table 4 also provided the designed mutations in the editing cassettes that were used to mutate the galK target gene.” for “indicated.”", "values": [{"substance": "scaffold-11: guide nucleic acid scaffold sequence, SEQ ID NO: 94 (guide GTCTGGCCCCAAATTTTAATTTCTACTGTTGTAGAT; chemistry not given here)", "formation of functional complexes with MAD2": "able to form functional complexes", "formation of functional complexes with MAD7": "able to form functional complexes"}, {"substance": "scaffold-12: guide nucleic acid scaffold sequence, SEQ ID NO: 95 (guide GTCAAAAGACCTTTTTAATTTCTACTCTTGTAGAT; chemistry not given here)", "formation of functional complexes with MAD2": "able to form functional complexes", "formation of functional complexes with MAD7": "able to form functional complexes"}, {"substance": "scaffold-10: guide nucleic acid scaffold sequence, SEQ ID NO: 93 (guide CTCTACAACTGATAAAGAATTTCTACTTTTGTAGAT; chemistry not given here)", "formation of functional complexes with MAD2": "able to form functional complexes", "formation of functional complexes with MAD7": "able to form functional complexes"}, {"substance": "scaffold-5: guide nucleic acid scaffold sequence, SEQ ID NO: 88 (guide CCGTCTAAAACTCATTCAGAATTTCTACTAGTGTAGAT; chemistry not given here)", "formation of functional complexes with MAD2": "able to form functional complexes"}]}]}
